Laboratory results as given in ChEMBL document CHEMBL1201862, “PubChem BioAssay data set” (2004).
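In this assay, cells in 96-well plates receive the compound at five concentrations for 48 hours. Endpoints are linearly interpolated between the surrounding concentrations. GI50 is the concentration that inhibits growth by half.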 The source made the active and inactive calls. Cut-off read from the data, not from the text of the source: active = GI50 up to about 1.1 µM and inactive = higher.

Legend:
Experiment in all cases: NCI tumour cell line growth inhibition, 48 h
NCI/ADR-RES = tested on: NCI/ADR-RES
OVCAR-4 = tested on: OVCAR-4
SF-268 = tested on: SF-268
HT-29 = tested on: HT-29
Malme-3M = tested on: Malme-3M
OVCAR-3 = tested on: OVCAR-3
M14 = tested on: M14
TK-10 = tested on: TK-10
A498 = tested on: A498
BT-549 = tested on: BT-549
SK-MEL-2 = tested on: SK-MEL-2
NCI-H522 = tested on: NCI-H522
RXF 393 = tested on: RXF 393
ACHN = tested on: ACHN
OVCAR-8 = tested on: OVCAR-8
CAKI-1 = tested on: CAKI-1
NCI-H460 = tested on: NCI-H460
HOP-92 = tested on: HOP-92
NCI-H226 = tested on: NCI-H226
K562 = tested on: K562

Measured: GI50

COC(=O)C1=CSC2(S1)C(C(=O)OC)=CSc1c2ssc1=O (stereo not given)
inactive: NCI/ADR-RES 2.87 µM | OVCAR-4 1.15 µM | SF-268 2.69 µM | HT-29 1.81 µM | Malme-3M 2 µM | OVCAR-3 1.81 µM | M14 2.5 µM | TK-10 2.42 µM | A498 6.28 µM | BT-549 2.7 µM | SK-MEL-2 1.96 µM | NCI-H522 1.49 µM | RXF 393 1.92 µM | ACHN 1.87 µM | OVCAR-8 2.34 µM | CAKI-1 2.11 µM | NCI-H460 6.15 µM | HOP-92 2.07 µM | NCI-H226 22.7 µM | K562 1.95 µM

CC1=C(C)SC(=C2Sc3c(n(C)c(=O)[nH]c3=O)S2)S1
inactive: NCI/ADR-RES > 100 µM | OVCAR-4 > 100 µM | SF-268 > 100 µM | HT-29 > 100 µM | Malme-3M > 100 µM | OVCAR-3 > 100 µM | M14 > 100 µM | TK-10 > 100 µM | A498 > 100 µM | BT-549 > 100 µM | SK-MEL-2 > 100 µM | NCI-H522 > 100 µM | RXF 393 > 100 µM | ACHN > 100 µM | OVCAR-8 > 100 µM | CAKI-1 > 100 µM | NCI-H460 > 100 µM | HOP-92 > 100 µM | NCI-H226 > 100 µM | K562 > 100 µM

OCCNC1c2cc(Cl)ccc2-c2c(Cl)cc(Cl)cc21 (stereo not given)
inactive: NCI/ADR-RES 45.9 µM | OVCAR-4 32.1 µM | SF-268 38.5 µM | HT-29 31.5 µM | Malme-3M > 100 µM | OVCAR-3 29.8 µM | M14 38.1 µM | TK-10 39.7 µM | A498 48 µM | BT-549 > 100 µM | SK-MEL-2 15.2 µM | NCI-H522 27.8 µM | RXF 393 40.2 µM | ACHN 25.9 µM | OVCAR-8 28.6 µM | CAKI-1 30.3 µM | NCI-H460 21.7 µM | HOP-92 20.3 µM | NCI-H226 > 100 µM | K562 33 µM

Nc1ccc2c(c1)CN1C(=O)c3ccccc3C1=N2 [DANIQUIDONE]
inactive: NCI/ADR-RES 66.1 µM | OVCAR-4 91.8 µM | SF-268 29 µM | HT-29 69.3 µM | Malme-3M 67 µM | OVCAR-3 40.9 µM | M14 104 µM | TK-10 36.4 µM | A498 43.1 µM | BT-549 > 93.3 µM | SK-MEL-2 > 79.8 µM | NCI-H522 45.3 µM | RXF 393 34.4 µM | ACHN 14.7 µM | OVCAR-8 22 µM | CAKI-1 41.4 µM | NCI-H460 15.5 µM | HOP-92 36.9 µM | NCI-H226 45.9 µM | K562 67.5 µM
